For data set [1] the following is noted: pH 7.4.
Data set [2] can be described thus: physchem. Conditions: buffer, pH 7.4.
The conditions of data set [3]: reported in WO 2013/059194; cited from earlier work.
For data set [4] the following is noted: pH 7.4. The source holds these as a separate data set.
Data set [5] is described as follows: physchem. Conditions: buffer, pH 7.4. This is another data set of the same source.
Data set [6] is described as follows: UV-vis method for pKa determination of compound 4 (Example 20). Type of data set: physicochemical. Conditions: 0.10 M phosphate buffer, 25° C., read-out: pKa (ring nitrogen proton). As to the method: A 1 mM solution of compound 4 is prepared in acetonitrile. To a cuvette containing 3.0 mL of 0.10 M phosphate buffer of the desired pH at 25° C. is added 50 μL of the compound 4 solution. The solution is mixed quickly by rapidly drawing up and dispensing the solution with a pipette. Absorbance spectra are collected immediately after the solution has mixed and settled.

Marks after values point to notes of the source that are not given here. Some results are limits rather than exact numbers.

Usually half-life stands for the time needed for the level to fall by half in the phase considered. Lower therefore signals fast loss. By melting point is commonly meant the temperature of the solid-liquid transition. Usually pKa stands for the negative logarithm of the acid dissociation constant.

Regarding `O=C1NC(=O)C(NO)(c2ccccc2)C(=O)N1` [Compound 8, 5-(N-hydroxylamino)-5-phenyl-barbituric acid], the “k (rate of appearance of BA byproduct, single exponential fit)” value in data set [1] is 0.00082 s⁻¹. In data set [2], this compound came in with a half-life of 0.233 h.

Take `CCC1(NO)C(=O)N(C)C(=O)N(C)C1=O` [5-ethyl HABA, 5-(N-hydroxylamine)-5-ethyl-N,N-dimethylbarbituric acid]: the HNO production entry in data set [3] is given as “less than the desired amount of HNO”.

`CC1(NO)C(=O)NC(=O)NC1=O` [Compound 17, 5-(N-hydroxylamino)-5-methyl-barbituric acid]: in data set [1], the “k (rate of appearance of BA byproduct, single exponential fit)” value stood at 0.00025 s⁻¹. In data set [2], this compound displayed a half-life of 0.767 h.

Regarding `CC(C)C1(NO)C(=O)NC(=O)NC1=O` [Compound 11, 5-(N-hydroxylamino)-5-(1-methylethyl)-barbituric acid], in data set [4], the HNO yield turned out to be 98; the “k (rate of disappearance of compound and appearance of BA byproduct, single exponential fit)” value worked out at 3.1e-06 s⁻¹. Moreover, the half-life in data set [5] stood at 62.4 h.

On to `O=C1NC(=O)C(Cc2ccccc2Cl)(NO)C(=O)N1` [Compound 14, 5-(N-hydroxylamino)-5-(2-chlorobenzyl)-barbituric acid], for which the “k (rate of appearance of BA byproduct, single exponential fit)” value in data set [1] stood at 0.00029 s⁻¹. The half-life in data set [2] was determined as 0.683 h.

As for `O=C1NC(=O)C(Cc2ccccc2)(NO)C(=O)N1` [Compound 5, 5-(N-hydroxylamino)-5-benzyl-barbituric acid], the “k (rate of appearance of BA byproduct, single exponential fit)” value in data set [1] is 0.00013 s⁻¹. In data set [2], this compound displayed a half-life of 1.53 h.

As for `CN1C(=O)N(C)C(=O)C(Cc2ccc(Cl)cc2)(NO)C1=O` [Compound 3, 5-(N-hydroxylamino)-5-(4-chlorobenzyl)-N,N-dimethylbarbituric acid], the melting point was in the range of 155 to 157 °C. In addition, in data set [4], the HNO yield is recorded as 92^d; the “k (rate of disappearance of compound and appearance of BA byproduct, single exponential fit)” value is 0.0006 s⁻¹. Further, in data set [1], the “k (rate of appearance of BA byproduct, single exponential fit)” value came to 0.00025 s⁻¹.

As to `COc1ccc(CC2(NO)C(=O)N(C)C(=O)N(C)C2=O)cc1` [Compound 2, 5-(N-hydroxylamino)-5-(4-methoxybenzyl)-N,N-dimethylbarbituric acid], the melting point lay in the range of 108 to 110 °C. Further, in data set [4], the HNO yield is reported as 96^d; the “k (rate of disappearance of compound and appearance of BA byproduct, single exponential fit)” value was 0.00015 s⁻¹. The “k (rate of appearance of BA byproduct, single exponential fit)” value in data set [1] is 8e-05 s⁻¹.

On to `O=C1NC(=O)C(Cc2cccs2)(NO)C(=O)N1` [Compound 16, 5-(N-hydroxylamino)-5-(2-thienylmethyl)-barbituric acid], for which the “k (rate of appearance of BA byproduct, single exponential fit)” value in data set [1] is 0.00029 s⁻¹. Besides, the half-life in data set [2] is 0.667 h.

In the case of `O=C1NC(=O)C(Cc2ccc(Cl)cc2)(NO)C(=O)N1` [Compound 7, 5-(N-hydroxylamino)-5-(4-chlorobenzyl)-barbituric acid], the “k (rate of appearance of BA byproduct, single exponential fit)” value in data set [1] stood at 0.00016 s⁻¹. In addition, the half-life in data set [2] worked out at 1.18 h.

For the compound `CCCC(C)C1(NO)C(=O)NC(=O)NC1=O` (stereo not drawn) [Compound 12, 5-(N-hydroxylamino)-5-(1-methylbutyl)-barbituric acid], in data set [4], the HNO yield worked out at 102; the “k (rate of disappearance of compound and appearance of BA byproduct, single exponential fit)” value turned out to be 5e-06 s⁻¹. Besides, the half-life in data set [5] was found to be 38.5 h.

With `CN1C(=O)N(C)C(=O)C(Cc2ccccc2)(NO)C1=O` [Compound 1, 5-(N-hydroxylamino)-5-benzyl-N,N-dimethylbarbituric acid], the melting point was 155 to 157 °C. In data set [4], the HNO yield is given as 99^d; the “k (rate of disappearance of compound and appearance of BA byproduct, single exponential fit)” value was 0.00031 s⁻¹. Also, in data set [1], the “k (rate of appearance of BA byproduct, single exponential fit)” value was found to be 0.00015 s⁻¹.

Regarding `C=CCC1(NO)C(=O)NC(=O)NC1=O` [Compound 9, 5-(N-hydroxylamino)-5-(2-propen-1-yl)-barbituric acid], the “k (rate of appearance of BA byproduct, single exponential fit)” value in data set [1] amounted to 0.00013 s⁻¹. In data set [2], this compound came in with a half-life of 1.5 h.

Regarding `CC(C)CC1(NO)C(=O)NC(=O)NC1=O` [Compound 10, 5-(N-hydroxylamino)-5-(2-methylpropyl)-barbituric acid], in data set [1], the “k (rate of appearance of BA byproduct, single exponential fit)” value came to 0.0005 s⁻¹. Besides, the half-life in data set [2] was 0.383 h.

Regarding `CCC(C)C1(NO)C(=O)NC(=O)NC1=O` (stereo not drawn) [Compound 18, 5-(N-hydroxylamino)-5-(1-methylpropyl)-barbituric acid], in data set [4], the HNO yield is reported as 102; the “k (rate of disappearance of compound and appearance of BA byproduct, single exponential fit)” value came to 5.9e-06 s⁻¹. The same compound returned a half-life in data set [5] of 32.9 h.

For `CCC1(NO)C(=O)NC(=O)NC1=O` [Compound 4, 5-(N-hydroxylamino)-5-ethyl-barbituric acid], the melting point is > 300 °C. In data set [4], the HNO yield was 97^d; the “k (rate of disappearance of compound and appearance of BA byproduct, single exponential fit)” value was 0.00011 s⁻¹. In data set [6], the pKa was ~7.4. The “k (rate of appearance of BA byproduct, single exponential fit)” value in data set [1] is 3.7e-05 s⁻¹.

In the case of `COc1ccc(CC2(NO)C(=O)NC(=O)NC2=O)cc1` [Compound 6, 5-(N-hydroxylamino)-5-(4-methoxybenzyl)-barbituric acid], in data set [1], the “k (rate of appearance of BA byproduct, single exponential fit)” value worked out at 8.8e-05 s⁻¹. Besides, the half-life in data set [2] is 2.2 h.

The values above are taken from patent publication US9464061B2, “N-hydroxylamino-barbituric acid derivatives” (priority 2014, dated 2016).
